Counter-ions that a name gives are not always drawn. Where only a bound is given, the exact number is not on record here.

The test deals with ASK1 (Homo sapiens (Human), UniProt Q99683). The test can be described thus: Human ASK1 ADP-Glo kinase assay. To be noted: recombinant ASK1 (amino acids 649-946), 50 μM ATP, MBP substrate. Type of test: biochemical. As for the experimental part: Example B-1: Human ASK1 ADP-Glo Assay
The ability of test compounds to inhibit ASK1 kinase activity was determined using the luminescent ADP-Glo™ Kinase Assay and Myelin Basic Protein (MBP) as a substrate (Promega Corporation, Madison, Wis.). During the kinase reaction, ASK1 utilizes ATP and generates ADP. The remaining ATP is then depleted by addition of the ADP-Glo™ reagent which also terminates the reaction. Subsequent addition of the Kinase Detection Reagent converts the ADP that was produced during the kinase reaction to ATP, and this newly synthesized ATP is converted to light using the luciferase/luciferin reactions. The assay was performed according to the manufacturer's instructions. Briefly, purified, recombinant ASK1 (amino acids 649-946) (10-20 ng/well) was added to a 384-well, F bottom, small volume, HIbase, white plate (Greiner Bio-One, Monroe, N.C. #784075) containing 1-2 μL 5× test compound or vehicle control (diluted 1:20 from a 100% DMSO stock solution into 1× Reaction Buffer A). The enzyme was allowed to pre-incubate with test compound from 15-120 min at 30° C. before the addition of the ATP/substrate mix (final concentrations of 50 μM ATP+250 ng MBP in 1× Reaction Buffer A). The mixture was then incubated at room temperature for 40 min before the addition of ADP-Glo™ reagent and a second 40 minute room temperature incubation. Following the addition of the Kinase Detection Reagent, the plate was incubated for an additional 40 min at room temperature before reading luminescence on a FlexStation 3 (Molecular Devices, Sunnyvale, Calif.). Maximum activity was determined from wells treated with vehicle and was set to 100% and minimum activity was determined from wells containing no enzyme and this was set to 0%. Percent inhibition was calculated relative to the controls and the data graphed in Collaborative Drug Discovery (CDD) Vault (Burlingame, Calif.).
Background: In ADP-Glo the light output rises with the ADP produced.

ASK1, sequence (Q99683 649-946): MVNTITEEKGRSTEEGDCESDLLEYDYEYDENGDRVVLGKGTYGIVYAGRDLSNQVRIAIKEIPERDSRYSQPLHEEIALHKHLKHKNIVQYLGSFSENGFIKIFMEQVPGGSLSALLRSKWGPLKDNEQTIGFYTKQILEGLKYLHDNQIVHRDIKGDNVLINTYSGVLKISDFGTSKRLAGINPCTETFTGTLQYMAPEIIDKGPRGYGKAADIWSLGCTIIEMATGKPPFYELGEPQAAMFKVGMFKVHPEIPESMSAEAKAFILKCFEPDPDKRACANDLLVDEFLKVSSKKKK

As usually defined, the IC50 is the point on the concentration scale where inhibition reaches its midpoint. For `CC(C)n1cnnc1-c1cccc(NC(=O)c2cccc(Oc3cc(C#N)cc(C(F)(F)F)n3)c2)n1` [Compound 1-23, 3-((4-Cyano-6-(trifluoromethyl)pyridin-2-yl)oxy)-N-(6-(4-isopropyl-4H-1,2,4-triazol-3-yl)pyridin-2-yl)benzamide], the IC50 is less than 0.3 µM.

For the compound `CC(C)n1cnnc1-c1cccc(NC(=O)c2cccc(Oc3cc(C(=O)O)cc(C(F)(F)F)n3)c2)n1` [Compound 1-24, 2-(3-((6-(4-Isopropyl-4H-1,2,4-triazol-3-yl)pyridin-2-yl)carbamoyl)phenoxy)-6-(trifluoromethyl)isonicotinic acid trifluoroacetate], the IC50 lay in the range of 0.3 to 1 µM. Regarding `CC(C)n1cnnc1-c1cccc(NC(=O)c2cccc(OCc3ccccc3)c2)n1` [Compound 1-179, 3-(Benzyloxy)-N-(6-(4-isopropyl-4H-1,2,4-triazol-3-yl)pyridin-2-yl)benzamide], the IC50 is less than 0.3 µM. In the case of `CC(C)n1cnnc1-c1cccc(NC(=O)c2cccc(OCc3cccnc3)c2)n1` [Compound 1-181, N-(6-(4-Isopropyl-4H-1,2,4-triazol-3-yl)pyridin-2-yl)-3-(pyridin-3-ylmethoxy)benzamide hydrochloride], the IC50 was less than 0.3 µM. Consider `CC(C)n1cnnc1-c1cccc(NC(=O)c2cc(Oc3ccccn3)ccc2F)n1` [Compound 1-210, 2-Fluoro-N-(6-(4-isopropyl-4H-1,2,4-triazol-3-yl)pyridin-2-yl)-5-(pyridin-2-yloxy)benzamide hydrochloride], for which the IC50 is less than 0.3 µM.

In the case of `CC(C)n1cnnc1-c1cccc(NC(=O)c2cc(Oc3cccnc3)ccc2F)n1` [Compound 1-211, 2-Fluoro-N-(6-(4-isopropyl-4H-1,2,4-triazol-3-yl)pyridin-2-yl)-5-(pyridin-3-yloxy)benzamide hydrochloride], the IC50 is less than 0.3 µM. To `CC(C)n1cnnc1-c1cccc(NC(=O)c2cc(Oc3cccc(C4CC4)n3)ccc2F)n1` [Compound 1-213, 5-((6-Cyclopropylpyridin-2-yl)oxy)-2-fluoro-N-(6-(4-isopropyl-4H-1,2,4-triazol-3-yl)pyridin-2-yl)benzamide trifluoroacetate] belongs less than 0.3 µM; to `CC(C)n1cnnc1-c1cccc(NC(=O)c2cc(Oc3ccncn3)ccc2F)n1` [Compound 1-217, 2-Fluoro-N-(6-(4-isopropyl-4H-1,2,4-triazol-3-yl)pyridin-2-yl)-5-(pyrimidin-4-yloxy)benzamide hydrochloride], less than 0.3 µM. To `CC(C)n1cnnc1-c1cccc(NC(=O)c2cc(Oc3cccc(C(F)(F)F)n3)ccc2F)c1` [Compound 1-223, 2-Fluoro-N-(3-(4-isopropyl-4H-1,2,4-triazol-3-yl)phenyl)-5-((6-(trifluoromethyl)pyridin-2-yl)oxy)benzamide hydrochloride] belongs less than 0.3 µM; to `CC(C)n1cnnc1-c1cccc(NC(=O)c2cc(Oc3cccc(N4CCCC4)n3)ccc2F)n1` [Compound 1-225, 2-Fluoro-N-(6-(4-isopropyl-4H-1,2,4-triazol-3-yl)pyridin-2-yl)-5-((6-(pyrrolidin-1-yl)pyridin-2-yl)oxy)benzamide hydrochloride], 0.3 to 1 µM. To `CC(C)n1cnnc1-c1cccc(NC(=O)c2cc(Oc3ccc(C4CC4)cn3)ccc2F)n1` [Compound 1-227, 5-((5-Cyclopropylpyridin-2-yl)oxy)-2-fluoro-N-(6-(4-isopropyl-4H-1,2,4-triazol-3-yl)pyridin-2-yl)benzamide hydrochloride] belongs less than 0.3 µM; to `CC(C)n1cnnc1-c1cccc(NC(=O)c2cc(NC(=O)c3ccccc3)ccc2F)n1` [Compound 1-305, 5-Benzamido-2-fluoro-N-(6-(4-isopropyl-4H-1,2,4-triazol-3-yl)pyridin-2-yl) benzamide hydrochloride], less than 0.3 µM.

Consider `CC(C)n1cnnc1-c1cccc(NC(=O)c2cc(NC(=O)c3ccccn3)ccc2F)n1` [Compound 1-307, N-(4-Fluoro-3-((6-(4-isopropyl-4H-1,2,4-triazol-3-yl)pyridin-2-yl)carbamoyl)phenyl)picolinamide hydrochloride], for which the IC50 was less than 0.3 µM.

Consider `CC(C)n1cnnc1-c1cccc(NC(=O)c2cc(NC(=O)c3cccnc3)ccc2F)n1` [Compound 1-308, N-(4-Fluoro-3-((6-(4-isopropyl-4H-1,2,4-triazol-3-yl)pyridin-2-yl)carbamoyl)phenyl)nicotinamide hydrochloride], for which the IC50 is less than 0.3 µM. The same measure for `CC(C)n1cnnc1-c1cccc(NC(=O)c2cc(NC(=O)c3ccncc3)ccc2F)n1` [Compound 1-309, N-(4-Fluoro-3-((6-(4-isopropyl-4H-1,2,4-triazol-3-yl)pyridin-2-yl)carbamoyl)phenyl)isonicotinamide dihydrochloride]: less than 0.3 µM; for `CC(C)n1cnnc1-c1cccc(NC(=O)c2cc(NC(=O)c3ccc(Br)cn3)ccc2F)n1` [Compound 1-311, 5-Bromo-N-(4-fluoro-3-((6-(4-isopropyl-4H-1,2,4-triazol-3-yl)pyridin-2-yl)carbamoyl)phenyl)picolinamide hydrochloride]: less than 0.3 µM; for `CC(C)n1cnnc1-c1cccc(NC(=O)c2cc(NC(=O)c3cncnc3)ccc2F)n1` [Compound 1-313, N-(4-Fluoro-3-((6-(4-isopropyl-4H-1,2,4-triazol-3-yl)pyridin-2-yl)carbamoyl)phenyl)pyrimidine-5-carboxamide hydrochloride]: less than 0.3 µM. As for `CC(C)n1cnnc1-c1cccc(NC(=O)c2cc(NC(=O)c3ncccn3)ccc2F)n1` [Compound 1-314, N-(4-Fluoro-3-((6-(4-isopropyl-4H-1,2,4-triazol-3-yl)pyridin-2-yl)carbamoyl)phenyl)pyrimidine-2-carboxamide trifluoroacetate], the IC50 was less than 0.3 µM. Consider `CC(C)(C)OC(=O)NCc1cc(Oc2ccnc(C(=O)Nc3cccc(-c4nncn4C4CC4)n3)c2)nc(C(F)(F)F)c1` [Compound 1-329, tert-Butyl ((2-((2-((6-(4-cyclopropyl-4H-1,2,4-triazol-3-yl)pyridin-2-yl)carbamoyl)pyridin-4-yl)oxy)-6-(trifluoromethyl)pyridin-4-yl)methyl)carbamate], for which the IC50 is 0.3 to 1 µM.

On to `CC(C)n1cnnc1-c1cccc(NC(=O)c2cc(NC(=O)c3cc(CN)ccn3)ccc2F)n1` [Compound 1-332, 4-(Aminomethyl)-N-(4-fluoro-3-((6-(4-isopropyl-4H-1,2,4-triazol-3-yl)pyridin-2-yl)carbamoyl)phenyl)picolinamide hydrochloride], for which the IC50 is less than 0.3 µM.

With `CC(C)n1cnnc1-c1cccc(NC(=O)c2cc(NC(=O)Cc3ccccc3)ccc2F)n1` [Compound 1-333, 2-Fluoro-N-(6-(4-isopropyl-4H-1,2,4-triazol-3-yl)pyridin-2-yl)-5-(2-phenylacetamido)benzamide trifluoroacetate], the IC50 is less than 0.3 µM.

On to `CC(C)n1cnnc1-c1cccc(NC(=O)c2cc(NC(=O)c3ccc(F)c(F)c3)ccc2F)n1` [Compound 1-334, 5-(3,4-Difluorobenzamido)-2-fluoro-N-(6-(4-isopropyl-4H-1,2,4-triazol-3-yl)pyridin-2-yl)benzamide hydrochloride], for which the concentration for half-maximal inhibition (IC50) was less than 0.3 µM.

Regarding `CC(C)n1cnnc1-c1cccc(NC(=O)c2cc(NC(=O)c3ccc(C(=O)O)cc3)ccc2F)n1` [Compound 1-335, 4-((4-Fluoro-3-((6-(4-isopropyl-4H-1,2,4-triazol-3-yl)pyridin-2-yl)carbamoyl)phenyl)carbamoyl)benzoic acid sodium salt], the IC50 is less than 0.3 µM. For the compound `CC(C)n1cnnc1-c1cccc(NC(=O)c2cc(Oc3cccc(Br)n3)ccc2F)n1` [Compound 1-336, 5-((6-Bromopyridin-2-yl)oxy)-2-fluoro-N-(6-(4-isopropyl-4H-1,2,4-triazol-3-yl)pyridin-2-yl)benzamide hydrochloride], the IC50 was less than 0.3 µM. The same measure for `CC(C)n1cnnc1-c1cccc(NC(=O)c2cc(Oc3ccc(Br)cn3)ccc2F)n1` [Compound 1-337, 5-((5-Bromopyridin-2-yl)oxy)-2-fluoro-N-(6-(4-isopropyl-4H-1,2,4-triazol-3-yl)pyridin-2-yl)benzamide hydrochloride]: 0.3 to 1 µM. The same measure for `O=C(Nc1ccc(F)c(C(=O)Nc2cccc(-c3nncn3C(CF)CF)n2)c1)c1ccccc1` [Compound 1-340, 5-Benzamido-N-(6-(4-(1,3-difluoropropan-2-yl)-4H-1,2,4-triazol-3-yl)pyridin-2-yl)-2-fluorobenzamide hydrochloride]: less than 0.3 µM. For the compound `C[C@H](CO)n1cnnc1-c1cccc(NC(=O)c2cc(NC(=O)c3ccccc3)ccc2F)n1` [Compound 1-341, (R)-5-Benzamido-2-fluoro-N-(6-(4-(1-hydroxypropan-2-yl)-4H-1,2,4-triazol-3-yl)pyridin-2-yl)benzamide], the IC50 is less than 0.3 µM. `C[C@H](CO)n1cnnc1-c1cccc(NC(=O)c2cc(Nc3ccc(F)cc3)ccc2F)n1` [Compound 1-342, (R)-2-Fluoro-5-((4-fluorophenyl)amino)-N-(6-(4-(1-hydroxypropan-2-yl)-4H-1,2,4-triazol-3-yl)pyridin-2-yl)benzamide]: the IC50 was 0.3 to 1 µM.

The values are drawn from patent US11345676B2, “Apoptosis signal-regulating kinase 1 (ASK 1) inhibitor compounds” (PHARMAKEA, INC., priority 2017, dated 2022).
